Values after ≈ are worked out from the molar mass of the structure shown. Active and inactive are the calls of the source. The calls are words filed in the database; no cut-off is given here.
Tests used:
[1] = Plasma protein binding in human assessed as unbound fraction at 5 uM incubated for 4 hrs by equllibrium dialysis method; assay type: ADME, cell-free
[2] = target: Cytochrome P450 2D6 (Homo sapiens, UniProt P10635); assay: Inhibition of CYP2D6 (unknown origin); assay type: ADME
[3] = tested on: Phosphatidylinositol 4,5-bisphosphate 3-kinase catalytic subunit alpha isoform (Homo sapiens), P42336 [H1047R]; assay: Induction of P110alpha H1047R mutant degradation in human HCC1954 cells at 0.012 to 1 uM after 24 hrs; assay type: cell-based; details: dose 0.012-1 µM
[4] = tested on: HCC1954; assay: Antitumor activity against human HCC1954 cells xenografted in mouse assessed as tumor growth inhibition at 50 mg/kg, po QD; assay type: functional; details: read-out: TGI
[5] = tested on: HCC1954; assay: Antitumor activity against human HCC1954 cells xenografted in mouse assessed as increase in cleaved PARP level at 50 mg/kg, po; assay type: functional, organism-based
[6] = Dissociation constant, pKa of the compound; assay type: physicochemical
[7] = tested on: MCF7; assay: Antiproliferative activity against human MCF7 cells assessed as reduction in cell viability incubated for 4 days by Celltiter-Glo luminescence assay; assay type: functional, cell-based; details: MCF7, 96 h
[8] = Thermodynamic solubility of the compound in FaSSIF; assay type: physicochemical; details: read-out: Therm_solubility
[9] = tested on: Mus musculus; assay: In vivo inhibition of PI3K in human HCC1954 cells xenografted in mouse at 50 mg/kg, po; assay type: functional, organism-based; details: TDE = time-dependent effect
[10] = Oral bioavailability in Sprague-Dawley rat plasma at 5 mg/kg measured upto 8 hrs by LC-MS/MS method; assay type: ADME, organism-based
[11] = target: hERG (KCNH2) (Homo sapiens, UniProt Q12809); assay: Inhibition of human ERG at 10 uM relative to control; assay type: toxicity
[12] = Plasma protein binding in rat assessed as unbound fraction at 5 uM incubated for 4 hrs by equllibrium dialysis method; assay type: ADME, cell-free
[13] = Inhibition of PI3KC2b (unknown origin); parameters: species or system Homo sapiens
[14] = target: T1, Cytochrome P450 1A2 (Homo sapiens, UniProt P05177); assay: Inhibition of CYP1A2 (unknown origin); assay type: ADME
T1 sequence (P05177 whole entry): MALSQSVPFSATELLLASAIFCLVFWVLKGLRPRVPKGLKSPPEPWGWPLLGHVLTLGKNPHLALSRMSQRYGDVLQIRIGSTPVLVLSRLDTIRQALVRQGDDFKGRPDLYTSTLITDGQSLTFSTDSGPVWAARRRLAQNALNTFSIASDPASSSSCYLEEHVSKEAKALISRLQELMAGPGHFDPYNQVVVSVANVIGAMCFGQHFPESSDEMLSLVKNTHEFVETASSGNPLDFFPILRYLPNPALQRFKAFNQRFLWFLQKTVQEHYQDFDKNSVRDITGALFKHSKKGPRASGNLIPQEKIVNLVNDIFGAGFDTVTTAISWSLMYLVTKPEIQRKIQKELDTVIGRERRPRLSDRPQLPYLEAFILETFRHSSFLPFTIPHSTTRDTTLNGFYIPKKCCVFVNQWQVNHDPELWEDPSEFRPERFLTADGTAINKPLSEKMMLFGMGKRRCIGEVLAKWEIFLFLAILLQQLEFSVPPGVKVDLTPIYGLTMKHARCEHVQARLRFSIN

[15] = target: Cytochrome P450 2C19 (Homo sapiens, UniProt P33261); assay: Inhibition of CYP2C19 (unknown origin); assay type: ADME
[16] = target: T2, Phosphatidylinositol 4,5-bisphosphate 3-kinase catalytic subunit delta isoform (Homo sapiens) (UniProt O00329); assay: Inhibition of PI3Kdelta in human B-cells assessed as reduction in CD69 expression preincubated for 1 hr followed by IgM stimulation for 18 hrs by flow cytometry analysis; assay type: cell-based; details: B-cell
T2 sequence (whole entry): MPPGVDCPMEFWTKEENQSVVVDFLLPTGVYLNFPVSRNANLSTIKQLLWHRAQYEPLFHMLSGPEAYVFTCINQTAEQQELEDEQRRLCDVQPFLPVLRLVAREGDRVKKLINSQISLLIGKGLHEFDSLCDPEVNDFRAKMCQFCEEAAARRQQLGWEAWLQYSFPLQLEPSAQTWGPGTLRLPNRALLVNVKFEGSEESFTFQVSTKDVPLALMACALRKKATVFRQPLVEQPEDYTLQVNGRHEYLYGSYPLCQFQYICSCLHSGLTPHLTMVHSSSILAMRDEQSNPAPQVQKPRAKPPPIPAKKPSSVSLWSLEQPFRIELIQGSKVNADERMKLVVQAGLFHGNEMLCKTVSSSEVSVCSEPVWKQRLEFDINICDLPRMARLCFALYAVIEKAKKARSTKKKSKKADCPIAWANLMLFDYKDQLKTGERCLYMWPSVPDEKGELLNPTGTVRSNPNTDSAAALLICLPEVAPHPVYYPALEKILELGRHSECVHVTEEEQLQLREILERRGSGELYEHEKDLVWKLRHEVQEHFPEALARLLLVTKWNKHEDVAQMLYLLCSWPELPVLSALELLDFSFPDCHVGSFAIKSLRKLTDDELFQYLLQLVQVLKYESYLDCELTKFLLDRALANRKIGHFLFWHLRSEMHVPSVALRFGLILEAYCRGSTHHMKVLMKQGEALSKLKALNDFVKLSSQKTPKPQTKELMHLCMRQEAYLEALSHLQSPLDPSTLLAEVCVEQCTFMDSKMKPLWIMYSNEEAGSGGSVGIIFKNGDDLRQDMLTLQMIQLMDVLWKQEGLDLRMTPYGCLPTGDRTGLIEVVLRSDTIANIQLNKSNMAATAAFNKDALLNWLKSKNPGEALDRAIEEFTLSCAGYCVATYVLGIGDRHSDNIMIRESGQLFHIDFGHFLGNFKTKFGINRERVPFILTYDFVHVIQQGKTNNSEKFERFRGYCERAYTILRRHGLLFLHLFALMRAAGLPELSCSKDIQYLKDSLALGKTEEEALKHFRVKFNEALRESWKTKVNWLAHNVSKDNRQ

[17] = Thermodynamic aqueous solubility of the compound at pH 7.4; assay type: physicochemical; details: read-out: Therm_solubility
[18] = Oral bioavailability in NCR nude mouse at 5 mg/kg measured upto 8 hrs by LC-MS/MS analysis; assay type: ADME, organism-based; details: in vivo
[19] = Lipophilicity, logD of compound in 1-Octanol/PBS at pH 7.4 by LC-MS/MS method; assay type: physicochemical
[20] = tested on: HCC1954; assay: Antitumor activity against human HCC1954 cells xenografted in mouse assessed as tumor growth inhibition at 25 mg/kg, po QD; assay type: functional; details: read-out: TGI
[21] = target: NaV1.5 (Homo sapiens, UniProt Q14524); assay: Inhibition of human NaV1.5 at 10 uM relative to control
[22] = Thermodynamic solubility of the compound in FaSSGF; assay type: physicochemical; details: read-out: Therm_solubility

hERG (KCNH2), sequence (Q12809 whole entry): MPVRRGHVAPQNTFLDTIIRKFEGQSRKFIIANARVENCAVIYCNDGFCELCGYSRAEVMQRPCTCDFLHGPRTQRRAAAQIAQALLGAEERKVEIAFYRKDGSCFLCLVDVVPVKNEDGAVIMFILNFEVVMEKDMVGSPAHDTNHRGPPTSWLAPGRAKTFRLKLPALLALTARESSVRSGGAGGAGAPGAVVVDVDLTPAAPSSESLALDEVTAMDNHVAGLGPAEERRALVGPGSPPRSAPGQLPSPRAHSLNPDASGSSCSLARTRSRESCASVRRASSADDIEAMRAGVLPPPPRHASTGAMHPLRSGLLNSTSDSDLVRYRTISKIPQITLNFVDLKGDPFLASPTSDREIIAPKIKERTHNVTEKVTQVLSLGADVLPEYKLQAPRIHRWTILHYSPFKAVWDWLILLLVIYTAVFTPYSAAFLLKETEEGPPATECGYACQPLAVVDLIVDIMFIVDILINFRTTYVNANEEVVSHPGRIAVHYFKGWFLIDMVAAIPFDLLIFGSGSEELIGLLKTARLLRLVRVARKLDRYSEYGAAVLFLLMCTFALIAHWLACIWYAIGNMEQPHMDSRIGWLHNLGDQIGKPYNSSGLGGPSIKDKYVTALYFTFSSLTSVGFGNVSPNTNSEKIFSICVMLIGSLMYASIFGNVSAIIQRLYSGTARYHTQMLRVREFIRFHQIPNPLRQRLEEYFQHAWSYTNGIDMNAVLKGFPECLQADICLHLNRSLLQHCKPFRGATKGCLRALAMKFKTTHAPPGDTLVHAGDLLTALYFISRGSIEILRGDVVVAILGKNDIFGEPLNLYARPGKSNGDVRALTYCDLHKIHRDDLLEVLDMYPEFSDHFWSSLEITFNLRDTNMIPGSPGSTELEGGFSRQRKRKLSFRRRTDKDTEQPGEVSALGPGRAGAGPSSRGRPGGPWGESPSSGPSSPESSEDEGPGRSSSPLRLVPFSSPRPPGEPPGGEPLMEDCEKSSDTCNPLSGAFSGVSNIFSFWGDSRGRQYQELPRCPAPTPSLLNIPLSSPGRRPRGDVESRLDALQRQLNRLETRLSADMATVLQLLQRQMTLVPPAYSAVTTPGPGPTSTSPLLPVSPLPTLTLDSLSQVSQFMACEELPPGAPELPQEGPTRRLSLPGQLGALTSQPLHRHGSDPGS
NaV1.5, sequence (Q14524 whole entry): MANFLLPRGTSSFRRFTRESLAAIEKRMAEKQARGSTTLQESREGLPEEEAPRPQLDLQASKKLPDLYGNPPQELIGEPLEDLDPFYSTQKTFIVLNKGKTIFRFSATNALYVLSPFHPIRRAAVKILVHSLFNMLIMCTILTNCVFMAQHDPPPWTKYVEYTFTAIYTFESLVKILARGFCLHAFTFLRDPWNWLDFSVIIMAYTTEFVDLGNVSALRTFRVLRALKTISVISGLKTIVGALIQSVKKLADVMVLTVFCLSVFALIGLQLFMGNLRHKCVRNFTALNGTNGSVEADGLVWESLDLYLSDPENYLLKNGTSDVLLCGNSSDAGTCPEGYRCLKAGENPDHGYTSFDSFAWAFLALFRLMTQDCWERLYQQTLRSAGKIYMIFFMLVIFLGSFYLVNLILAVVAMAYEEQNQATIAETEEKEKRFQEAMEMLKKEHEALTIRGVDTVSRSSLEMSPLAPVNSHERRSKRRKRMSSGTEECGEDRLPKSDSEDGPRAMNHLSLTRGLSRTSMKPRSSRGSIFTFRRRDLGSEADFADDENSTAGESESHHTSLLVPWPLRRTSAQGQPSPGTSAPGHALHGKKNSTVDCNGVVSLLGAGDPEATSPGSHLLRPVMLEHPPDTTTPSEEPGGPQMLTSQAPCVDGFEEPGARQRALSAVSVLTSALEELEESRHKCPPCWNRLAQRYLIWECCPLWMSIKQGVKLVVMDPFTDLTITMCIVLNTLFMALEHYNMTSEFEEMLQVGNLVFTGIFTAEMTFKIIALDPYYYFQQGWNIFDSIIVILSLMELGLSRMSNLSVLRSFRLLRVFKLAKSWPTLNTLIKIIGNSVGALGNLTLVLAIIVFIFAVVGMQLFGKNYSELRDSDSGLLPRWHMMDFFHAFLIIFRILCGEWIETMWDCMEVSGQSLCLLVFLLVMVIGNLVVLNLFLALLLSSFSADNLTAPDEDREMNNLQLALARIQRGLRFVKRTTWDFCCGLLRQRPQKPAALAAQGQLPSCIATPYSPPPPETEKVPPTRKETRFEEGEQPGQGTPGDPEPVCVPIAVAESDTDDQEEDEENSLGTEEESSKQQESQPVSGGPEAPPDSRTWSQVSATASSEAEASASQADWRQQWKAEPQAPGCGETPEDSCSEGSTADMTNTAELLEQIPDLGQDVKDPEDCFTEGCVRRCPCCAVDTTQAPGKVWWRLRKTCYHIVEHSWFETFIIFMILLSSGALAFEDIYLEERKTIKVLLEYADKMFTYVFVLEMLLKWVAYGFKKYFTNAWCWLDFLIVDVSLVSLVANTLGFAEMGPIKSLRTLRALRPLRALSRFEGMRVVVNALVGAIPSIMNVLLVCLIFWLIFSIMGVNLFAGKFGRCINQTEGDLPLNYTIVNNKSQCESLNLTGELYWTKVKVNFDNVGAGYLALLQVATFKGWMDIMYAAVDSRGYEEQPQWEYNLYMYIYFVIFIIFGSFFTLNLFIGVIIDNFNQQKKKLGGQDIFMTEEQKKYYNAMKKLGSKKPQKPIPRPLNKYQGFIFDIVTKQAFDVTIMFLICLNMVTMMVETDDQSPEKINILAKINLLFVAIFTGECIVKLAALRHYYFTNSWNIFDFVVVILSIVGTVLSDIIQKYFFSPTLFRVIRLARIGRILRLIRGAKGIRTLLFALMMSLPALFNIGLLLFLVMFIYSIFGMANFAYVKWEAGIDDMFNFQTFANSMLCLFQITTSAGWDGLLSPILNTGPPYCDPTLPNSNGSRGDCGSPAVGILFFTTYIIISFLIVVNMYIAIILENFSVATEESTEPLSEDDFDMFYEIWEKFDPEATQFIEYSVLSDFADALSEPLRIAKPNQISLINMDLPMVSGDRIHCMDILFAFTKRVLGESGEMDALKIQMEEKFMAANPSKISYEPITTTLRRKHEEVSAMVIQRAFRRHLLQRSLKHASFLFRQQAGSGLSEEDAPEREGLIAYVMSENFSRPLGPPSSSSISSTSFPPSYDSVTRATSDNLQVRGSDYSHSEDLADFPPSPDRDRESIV
Cytochrome P450 2D6, sequence (P10635 whole entry, canonical isoform): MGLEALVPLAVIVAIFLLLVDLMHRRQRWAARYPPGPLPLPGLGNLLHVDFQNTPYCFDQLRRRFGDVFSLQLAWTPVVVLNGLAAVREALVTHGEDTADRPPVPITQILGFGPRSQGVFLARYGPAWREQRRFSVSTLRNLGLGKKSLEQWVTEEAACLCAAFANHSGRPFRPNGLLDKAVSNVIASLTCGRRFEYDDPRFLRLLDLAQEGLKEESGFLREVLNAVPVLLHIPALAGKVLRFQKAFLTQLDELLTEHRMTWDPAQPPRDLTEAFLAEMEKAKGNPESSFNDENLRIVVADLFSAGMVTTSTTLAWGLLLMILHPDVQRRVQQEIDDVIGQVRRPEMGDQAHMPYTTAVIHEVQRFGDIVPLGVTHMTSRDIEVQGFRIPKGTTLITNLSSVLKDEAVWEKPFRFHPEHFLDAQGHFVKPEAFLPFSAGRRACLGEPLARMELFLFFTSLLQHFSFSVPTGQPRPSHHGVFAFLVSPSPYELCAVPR
Cytochrome P450 2C19, sequence (P33261 whole entry, canonical isoform): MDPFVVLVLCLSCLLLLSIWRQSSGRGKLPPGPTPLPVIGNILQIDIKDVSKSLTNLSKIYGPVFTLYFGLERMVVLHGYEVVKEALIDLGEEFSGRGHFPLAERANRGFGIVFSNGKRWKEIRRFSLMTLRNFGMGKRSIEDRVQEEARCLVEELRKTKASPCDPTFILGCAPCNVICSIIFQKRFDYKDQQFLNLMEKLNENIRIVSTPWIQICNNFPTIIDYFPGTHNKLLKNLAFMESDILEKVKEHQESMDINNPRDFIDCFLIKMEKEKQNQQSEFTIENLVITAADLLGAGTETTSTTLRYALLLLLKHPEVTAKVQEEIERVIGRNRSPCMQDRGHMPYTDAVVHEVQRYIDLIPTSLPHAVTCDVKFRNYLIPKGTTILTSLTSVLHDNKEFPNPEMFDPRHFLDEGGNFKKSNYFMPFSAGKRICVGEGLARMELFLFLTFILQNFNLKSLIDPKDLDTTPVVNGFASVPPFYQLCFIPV

fraction unbound at 4 h, 5 µM [1]: 0.589 | IC50 [2]: > 10000 nM | Activity [3]: Active | pKa [6]: 3.3 | EC50 [7]: 30 nM | solubility thermodynamic [8]: 36 µg/mL (≈ 88.4 µM) | bioavailability [10]: 58% | fraction unbound at 4 h, 5 µM [12]: 0.608 | IC50 [13]: 56 nM | IC50 [14]: > 10000 nM | IC50 [15]: > 10000 nM | IC90 [16]: 276 nM | solubility thermodynamic [17]: 38 µg/mL (≈ 93.3 µM) | bioavailability [18]: 45% | logD [19]: 0.8 | solubility thermodynamic [22]: 1600 µg/mL (≈ 3930 µM)
Structure (SMILES): C[C@H](Nc1ccc2c(c1)OCCn1cc(N3C(=O)OC[C@H]3C(F)F)nc1-2)C(N)=O [INAVOLISIB]
inhibition in vivo at 50 mg/kg [4]: 149% | Activity [5]: Active | inhibition [9]: Tde | inhibition at 10 µM [11]: < 20% | inhibition in vivo at 25 mg/kg [20]: 140% | inhibition at 10 µM [21]: < 20%

— ChEMBL document CHEMBL5150064 (J Med Chem, 2022)
